Measured values published in patent US20140099257A1, “Androgen Suppression, Prostate-Specific Membrane Antigen and the Concept of Conditionally Enhanced Vulnerability” (CORNELL UNIVERSITY, priority 2012, published 2014).

Test system: AR
Test: Silencing of AR with siRNA in prostate cancer cell lines; AR, PSMA expression (FACS, western blot) and PSA secretion
Type: cell-based, human
Conditions: FACS analysis of LNCaP, MDA-Pca-2b and LAPC-4 cells (FIG. 6)
Experimental: For western blots, cells were lysed with Cell Lysis Buffer (Cell Signaling Technology, Danvers, Mass.) containing 1 mM phenylmethylsulphonyl fluoride (EMD Chemicals, Gibbstown, N.J.). Equal amounts of protein were applied in each well on a 10% Tris-HCl gel (Bio-Rad Laboratories, Hercules, Calif.). The proteins were transferred onto Immobilon-P Membranes (Millipore, Billerica, Mass.), after which the filters were probed with the following reagents: murine anti-PSMA mAb J591, murine mAb anti-AR (AR441), rabbit anti-human AR, murine mAb anti-human beta-actin, and/or goat polyclonal anti-GAPDH. For quantitative western blots, the Li-cor Odyssey Infrared Imaging System (Lincoln, Nebr.) was used. With this system, two different proteins of the same molecular weight (e.g., PSMA and AR) can be detected simultaneously and quantified on the same blot using two different antibodies from two different species (mouse and rabbit) followed by detection with two IRDye labeled secondary antibodies. […] After washing, the membranes were scanned and the bands were quantified with the Odyssey Infrared Imaging System.
Fluorescence-activated cell sorting (FACS) analysis was also employed in these examples0. […]

## non-targeted-siRNA: non-targeting control siRNA 5′-CCUACGCCACCAAUUUCGU-3′ (Dharmacon) (chemistry not given here)
  AR expression: did not affect expression
  PSMA expression: did not affect expression
